# According to patent publication US9968582B2, “Use of a benzoate containing composition in urea cycle disorders and neurodegenerative disorders” (Rush University Medical Center, priority 2014, dated 2018):
# Assays:
# [1] = test system: dopamine (DA) in the striata; assay: MPTP mouse model of PD, HPLC of striatal dopamine; format: in vivo, mice; conditions: FIG. 10
# Protocol: Six- to eight-week old C57BL/6 mice were purchased from Harlan (Indianapolis, Ind.). For acute MPTP intoxication, mice received four intraperitoneal (i.p.) injections of MPTP-HCl (18 mg/kg of free base; Sigma Chemical Co., St. Louis, Mo.) in saline at 2-h intervals. Control animals received only saline.
# GTB was mixed in 0.5% methylcellulose (MC) and from 3 h after the last injection of MPTP, mice were gavaged 100 μL GTB-mixed MC once daily using gavage needle. Therefore, control MPTP mice received only MC as vehicle.
# Striatal level of dopamine was quantified in Complete Stand-Alone HPLC-ECD System EiCOMHTEC-500 (JM Science Inc., Grand Island, N.Y.). Briefly, mice were sacrificed by cervical dislocation after 7 days of MPTP intoxication and their striata were collected and immediately frozen in dry ice and stored at −80° C. until analysis. On the day of the analysis, tissues were sonicated in 0.2M perchloric acid containing isoproterenol and resulting homogenates were centrifuged at 20,000×g for 15 min at 4 C. After pH adjustment and filtration, 10 μl of supernatant was injected onto an Eicompak SC-3ODS column (Complete Stand-Alone HPLC-ECD System EiCOMHTEC-500 from JM Science Inc., Grand Island, N.Y.) and analyzed following the manufacturer's protocol.
# Next, to determine whether GTB protects against biochemical deficits caused by MPTP, the inventor quantified levels of dopamine (DA) in the striata 7 days after the MPTP treatment. As evident from FIG. 10, MPTP intoxication led to about 75% decrease in striatal DA compared to striata of saline-injected control mice.
# [2] = test system: female PLP-TCR transgenic (Tg) mice; assay: Relapsing EAE in PLP-TCR transgenic mice, clinical symptoms; format: in vivo; conditions: FIG. 1B
# [3] = test system: Foxp3+CD4+ population of T cells; assay: Flow cytometry of Tregs in splenocytes of EAE mice; format: in vivo; conditions: FIG. 7A-D
# Protocol: Two-color flow cytometry was performed as described previously. Briefly, 1×10^6 lymph node cells (LNC) or splenocytes suspended in flow staining buffer were incubated at 4° C. with appropriately diluted FITC-labeled Ab to CD4 for 30 min, washed, and re-suspended in fixation and permeabilization solution. Following incubation in dark for 30 min, cells were washed, blocked with test Fc block (anti-mouse CD16/32) in permeabilization buffer, and subsequently incubated with appropriately diluted PE-labeled Abs to Foxp3 at 4° C. in the dark. After incubation, the cell suspension was centrifuged, washed thrice, and re-suspended in flow staining buffer. The cells then were analyzed through FACS (BD Biosciences, San Jose, Calif.). Cells were gated based on morphological characteristics. Apoptotic and necrotic cells were not accepted for FACS analysis.
# Since TGF-β is involved in the differentiation of non-Tregs into Tregs, the inventor monitored the status of Tregs in EAE mice. A major population of Tregs is characterized by a transcription factor FoxP3. During autoimmune insults, Tregs become both numerically and functionally defective. Therefore, as expected, the inventor observed significant reduction in Foxp3+CD4+ population of T cells in EAE splenocytes as evident from FACS dot plot (FIG. 7A-B). […]
# [4] = test system: myelin basic protein (MBP); assay: Myelin gene mRNA expression in spinal cord of EAE mice: MBP; format: in vivo; conditions: FIG. 5C-E
# Protocol: Total RNA was isolated from splenic T cells and spinal cord by using the RNeasy mini kit (Qiagen, Valencia, Calif.) and from spleen and cerebellum by using the Ultraspec-II RNA reagent (Biotecx laboratories, Inc, Houston, Tex.) following manufacturer's protocol. To remove any contaminating genomic DNA, total RNA was digested with DNase. Semi-quantitative RT-PCR was carried out using a RT-PCR kit from Clonetech (Mountain View, Calif.). Briefly, 1 μg of total RNA was reverse transcribed using oligo(dT)12-18 as primer and MMLV reverse transcriptase (Clontech) in a 20 μL reaction mixture. […]
# The relative expression of each gene with respect to GAPDH was measured after scanning the bands with a Fluor Chem 8800 Imaging System (Alpha Innotech, San Leandro, Calif.).
# Real-time PCR analysis was performed using the ABI-Prism7700 sequence detection system (Applied Biosystems, Foster City, Calif.). […] Data were processed by the ABI Sequence Detection System 1.6 software and analyzed by ANOVA.
# Demyelination is the most important pathological feature in MS, which is also modeled in EAE animals. […] To confirm this finding, the inventor monitored the expression of […] myelin genes, myelin basic protein (MBP) and proteolipid protein (PLP), and observed a marked loss of mRNA expression of these genes in the spinal cord of untreated EAE mice compared to control mice (FIG. 5C-E).
smiles,measurement,setting,value
"O=C(OCC(COC(=O)c1ccccc1)OC(=O)c1ccccc1)c1ccccc1 [GTB, glyceryl tribenzoate]",decrease in striatal dopamine,"[1]; GTB 50 mg/kg body wt/d in MPTP-intoxicated mice, MPTP alone about 75% decrease",25%
same,dopamine in the striatum,"[1]; GTB in MPTP-intoxicated mice, 7 days after MPTP",dose-dependently protected dopamine
same,dose of maximum inhibition of EAE,[2]; GTB from 8 dpi,50 mg/kg body wt/d
same,clinical symptoms (mean clinical score),"[2]; different doses of GTB from 8 dpi, 10 μg/mouse PLP139-151",inhibitory effect of GTB on the clinical symptoms was clearly observed
same,Foxp3+CD4+ population in splenocytes,[3],led to the increase in Foxp3+CD4+ population
same,MBP mRNA expression in the spinal cord,[4],significant restoration of myelin gene mRNA expression
